Test results published in paper PMC5218480 (PLoS ONE, 2017).

Tested on: MV-4-11 cells
Test: Gene expression microarray analysis (Affymetrix PrimeView) and GSEA
Type: cell-based, human
Parameters: RFU PODN (11730768_x_at) / Fold change /veh PODN (11730768_x_at) / RFU LINC00158 (11744669_a_at) / Fold change /veh LINC00158 (11744669_a_at) / RFU DUSP10 (11751237_a_at) / Fold change /veh DUSP10 (11751237_a_at) / RFU ID3 (11757404_x_at) / Fold change /veh ID3 (11757404_x_at) / RFU PLEKHG5 (11737974_s_at) / Fold change /veh PLEKHG5 (11737974_s_at) / RFU LRRC4B (11730491_at) / Fold change /veh LRRC4B (11730491_at) / RFU GIMAP4 (11747438_a_at) / Fold change /veh GIMAP4 (11747438_a_at) / RFU KRT8 (11758183_x_at) / Fold change /veh KRT8 (11758183_x_at) / RFU CNN1 (11734310_a_at) / Fold change /veh CNN1 (11734310_a_at) / RFU VPS37D (11726825_at) / Fold change /veh VPS37D (11726825_at) / RFU C10orf10 (11716522_x_at) / Fold change /veh C10orf10 (11716522_x_at) / RFU KIR2DL2 /// KIR2DL4 /// KIR2DL5A /// KIR2DL5B /// KIR2DS1 /// KIR2DS2 /// KIR2DS3 /// KIR2DS4 /// KIR3DL3 /// KIR3DL3 /// KIR3DS1 (11738374_at) / Fold change /veh KIR2DL2 /// KIR2DL4 /// KIR2DL5A /// KIR2DL5B /// KIR2DS1 /// KIR2DS2 /// KIR2DS3 /// KIR2DS4 /// KIR3DL3 /// KIR3DL3 /// KIR3DS1 (11738374_at) / RFU C1QL1 (11718748_at) / Fold change /veh C1QL1 (11718748_at) / RFU TMPRSS4 (11747572_a_at) / Fold change /veh TMPRSS4 (11747572_a_at) / RFU HAMP (11756126_x_at) / Fold change /veh HAMP (11756126_x_at) / RFU RNFT2 (11725882_a_at) / Fold change /veh RNFT2 (11725882_a_at) / RFU NR4A2 (11747474_a_at) / Fold change /veh NR4A2 (11747474_a_at) / RFU ABCC12 (11746883_a_at) / Fold change /veh ABCC12 (11746883_a_at) / RFU TMEM136 (11760407_x_at) / Fold change /veh TMEM136 (11760407_x_at) / RFU CLDN22 /// WWC2 (11732394_at) / Fold change /veh CLDN22 /// WWC2 (11732394_at) / RFU HLA-DPB1 (11760878_x_at) / Fold change /veh HLA-DPB1 (11760878_x_at) / RFU SPINT1 (11716480_a_at) / Fold change /veh SPINT1 (11716480_a_at) / RFU GAP43 (11754022_s_at) / Fold change /veh GAP43 (11754022_s_at) / RFU A4GNT (11735810_at) / Fold change /veh A4GNT (11735810_at) / RFU PRB3 (11715151_x_at) / Fold change /veh PRB3 (11715151_x_at) / RFU TUBB4B (11761932_at) / Fold change /veh TUBB4B (11761932_at) / RFU CAPN14 (11732068_a_at) / Fold change /veh CAPN14 (11732068_a_at) / RFU TMCC2 (11721928_a_at) / Fold change /veh TMCC2 (11721928_a_at) / RFU IRGQ (11745062_a_at) / Fold change /veh IRGQ (11745062_a_at) / RFU FAM174B (11720279_a_at) / Fold change /veh FAM174B (11720279_a_at) / RFU TMPRSS4 (11748680_a_at) / Fold change /veh TMPRSS4 (11748680_a_at) / RFU FAM212B (11763350_a_at) / Fold change /veh FAM212B (11763350_a_at) / RFU PLEKHG5 (11743358_a_at) / Fold change /veh PLEKHG5 (11743358_a_at) / RFU ZSCAN30 (11745921_a_at) / Fold change /veh ZSCAN30 (11745921_a_at) / RFU CMKLR1 (11741424_a_at) / Fold change /veh CMKLR1 (11741424_a_at) / RFU LOC101060620 /// MAPK8IP1 (11723275_at) / Fold change /veh LOC101060620 /// MAPK8IP1 (11723275_at) / RFU SPTSSB (11747773_x_at) / Fold change /veh SPTSSB (11747773_x_at) / RFU PRSS12 (11739890_at) / Fold change /veh PRSS12 (11739890_at) / RFU BIN1 (11741810_x_at) / Fold change /veh BIN1 (11741810_x_at) / RFU WNT11 (11732464_a_at) / Fold change /veh WNT11 (11732464_a_at) / RFU C10orf10 (11716521_a_at) / Fold change /veh C10orf10 (11716521_a_at) / RFU C5orf56 (11738089_at) / Fold change /veh C5orf56 (11738089_at) / RFU CYB561 (11721691_x_at) / Fold change /veh CYB561 (11721691_x_at) / RFU ANKRD19P (11752326_a_at) / Fold change /veh ANKRD19P (11752326_a_at) / RFU OR2T12 /// OR2T33 /// OR2T8 (11738714_s_at) / Fold change /veh OR2T12 /// OR2T33 /// OR2T8 (11738714_s_at) / RFU VCAN (11748164_a_at) / Fold change /veh VCAN (11748164_a_at) / RFU JSRP1 (11732532_at) / Fold change /veh JSRP1 (11732532_at) / RFU KRTAP10-11 (11738290_x_at) / Fold change /veh KRTAP10-11 (11738290_x_at) / RFU MYO3A (11730013_a_at) / Fold change /veh MYO3A (11730013_a_at) / RFU EBF3 (11725865_a_at) / Fold change /veh EBF3 (11725865_a_at) / RFU CAMK2N1 (11719241_x_at) / Fold change /veh CAMK2N1 (11719241_x_at) / RFU C5orf56 (11738088_a_at) / Fold change /veh C5orf56 (11738088_a_at) / RFU OLFML3 (11715873_a_at) / Fold change /veh OLFML3 (11715873_a_at) / RFU LOC100653217 /// NTM (11731650_a_at) / Fold change /veh LOC100653217 /// NTM (11731650_a_at) / RFU MAPK11 (11762145_a_at) / Fold change /veh MAPK11 (11762145_a_at) / RFU FIZ1 (11724087_x_at) / Fold change /veh FIZ1 (11724087_x_at) / RFU OASL (11726364_x_at) / Fold change /veh OASL (11726364_x_at) / RFU SOX15 (11748057_x_at) / Fold change /veh SOX15 (11748057_x_at) / RFU CD79A (11719716_a_at) / Fold change /veh CD79A (11719716_a_at) / RFU HIST1H1D (11736915_at) / Fold change /veh HIST1H1D (11736915_at) / RFU CASKIN2 (11723855_a_at) / Fold change /veh CASKIN2 (11723855_a_at) / RFU LOC730098 (11760151_x_at) / Fold change /veh LOC730098 (11760151_x_at) / RFU OR4N2 (11742367_at) / Fold change /veh OR4N2 (11742367_at) / RFU PRRT2 (11749266_a_at) / Fold change /veh PRRT2 (11749266_a_at) / RFU SNX32 (11753110_a_at) / Fold change /veh SNX32 (11753110_a_at) / RFU CDHR5 (11726645_a_at) / Fold change /veh CDHR5 (11726645_a_at) / RFU RCAN1 (11760418_a_at) / Fold change /veh RCAN1 (11760418_a_at) / RFU FAM167A (11723789_a_at) / Fold change /veh FAM167A (11723789_a_at) / RFU FAM26E (11764081_at) / Fold change /veh FAM26E (11764081_at) / RFU ISYNA1 (11749810_s_at) / Fold change /veh ISYNA1 (11749810_s_at) / RFU ACY1 (11761880_at) / Fold change /veh ACY1 (11761880_at) / RFU 11764098_at / Fold change /veh 11764098_at / RFU SAMD14 (11745864_x_at) / Fold change /veh SAMD14 (11745864_x_at) / RFU NPB (11741838_a_at) / Fold change /veh NPB (11741838_a_at) / RFU TMPRSS6 (11731388_a_at) / Fold change /veh TMPRSS6 (11731388_a_at) / RFU KRTAP10-2 (11738614_at) / Fold change /veh KRTAP10-2 (11738614_at) / RFU ARHGAP8 /// PRR5-ARHGAP8 (11727945_x_at) / Fold change /veh ARHGAP8 /// PRR5-ARHGAP8 (11727945_x_at) / RFU KRTAP5-7 /// NADSYN1 (11734609_at) / Fold change /veh KRTAP5-7 /// NADSYN1 (11734609_at) / RFU RASL12 (11751679_a_at) / Fold change /veh RASL12 (11751679_a_at) / RFU CDKN2B (11736163_a_at) / Fold change /veh CDKN2B (11736163_a_at) / RFU PRF1 (11729649_at) / Fold change /veh PRF1 (11729649_at) / RFU, ZNF638 /// ZNF638-IT1 / Fold change vs veh, ZNF638 /// ZNF638-IT1 / RFU, PANK3 / Fold change vs veh, PANK3 / RFU, SH3YL1 / Fold change vs veh, SH3YL1 / RFU, ZEB2 / Fold change vs veh, ZEB2 / RFU, NRIP1 / Fold change vs veh, NRIP1 / RFU, PTTG1IP / Fold change vs veh, PTTG1IP / RFU, CAPN2 / Fold change vs veh, CAPN2 / RFU, MED14 / Fold change vs veh, MED14 / RFU, SNORA58 / Fold change vs veh, SNORA58 / RFU, C1orf63 / Fold change vs veh, C1orf63 / RFU, LRRFIP1 / Fold change vs veh, LRRFIP1 / RFU, NDUFAF7 / Fold change vs veh, NDUFAF7 / RFU, SLC12A2 / Fold change vs veh, SLC12A2 / RFU, IBTK / Fold change vs veh, IBTK / RFU, ESF1 / Fold change vs veh, ESF1 / Fold change vs veh, TMEM50B / RFU, TAOK1 / Fold change vs veh, TAOK1 / RFU, ACBD3 / Fold change vs veh, ACBD3 / RFU, TMA16 / Fold change vs veh, TMA16 / RFU, RWDD3 / Fold change vs veh, RWDD3 / RFU, BCAT1 / Fold change vs veh, BCAT1 / RFU, EDEM3 / Fold change vs veh, EDEM3 / RFU, TMEM33 / Fold change vs veh, TMEM33 / RFU, WDR75 / Fold change vs veh, WDR75 / RFU, AHCTF1 / Fold change vs veh, AHCTF1 / RFU, TFRC / Fold change vs veh, TFRC / RFU, ZDHHC17 / Fold change vs veh, ZDHHC17 / RFU, NOM1 / Fold change vs veh, NOM1 / RFU, ARL8B / Fold change vs veh, ARL8B / RFU, ZBTB11 / Fold change vs veh, ZBTB11 / RFU, TAMM41 / Fold change vs veh, TAMM41 / RFU, KIAA1704 /// LOC100996395 / Fold change vs veh, KIAA1704 /// LOC100996395 / RFU, ING1 / Fold change vs veh, ING1 / RFU, TRMT61B / Fold change vs veh, TRMT61B / RFU, FUBP3 / Fold change vs veh, FUBP3 / RFU, TP53 / Fold change vs veh, TP53 / RFU, TNKS2 / Fold change vs veh, TNKS2 / RFU, ZFP14 / Fold change vs veh, ZFP14 / RFU, ACTR2 / Fold change vs veh, ACTR2 / RFU, PPP3R1 / Fold change vs veh, PPP3R1 / RFU, PIK3R1 / Fold change vs veh, PIK3R1 / RFU, HNRNPA1 / Fold change vs veh, HNRNPA1 / RFU, RNF170 / Fold change vs veh, RNF170 / RFU, ZNF28 / Fold change vs veh, ZNF28 / RFU, RNGTT / Fold change vs veh, RNGTT / RFU, OGT / Fold change vs veh, OGT / RFU, BRD1 / Fold change vs veh, BRD1 / RFU, MARS / Fold change vs veh, MARS / RFU, ZNF655 / Fold change vs veh, ZNF655 / RFU, FAHD1 / Fold change vs veh, FAHD1 / RFU, BDP1 / Fold change vs veh, BDP1 / RFU, LRRCC1 / Fold change vs veh, LRRCC1 / RFU, ARID1A / Fold change vs veh, ARID1A / RFU, ZNF146 / Fold change vs veh, ZNF146 / RFU, ZNF330 / Fold change vs veh, ZNF330 / RFU, GPN3 / Fold change vs veh, GPN3 / RFU, C9orf123 / Fold change vs veh, C9orf123 / RFU, N4BP2L2 / Fold change vs veh, N4BP2L2 / RFU, ARFIP1 / Fold change vs veh, ARFIP1 / RFU, FAM179B / Fold change vs veh, FAM179B / RFU, BCL10 / Fold change vs veh, BCL10 / RFU, UHRF1BP1L / Fold change vs veh, UHRF1BP1L / RFU, BET1 / Fold change vs veh, BET1 / RFU, CNOT2 / Fold change vs veh, CNOT2 / RFU, ZNF268 / Fold change vs veh, ZNF268 / Fold change vs veh, ZNF507 / RFU, DGCR2 / Fold change vs veh, DGCR2 / RFU, WDSUB1 / Fold change vs veh, WDSUB1 / Fold change vs veh, HSP90B1 /// MIR3652 / RFU, ADSS / Fold change vs veh, ADSS / RFU, GK / Fold change vs veh, GK / RFU, ZNF148 / Fold change vs veh, ZNF148 / RFU, TAF9 / Fold change vs veh, TAF9 / RFU, SLC1A5 / Fold change vs veh, SLC1A5 / RFU, SLMO2 / Fold change vs veh, SLMO2 / RFU, ABCC4 / Fold change vs veh, ABCC4 / RFU, LOC101060439 /// RAP1B / Fold change vs veh, LOC101060439 /// RAP1B / RFU, RFX7 / Fold change vs veh, RFX7 / RFU, GTPBP10 / Fold change vs veh, GTPBP10 / RFU, CNEP1R1 / Fold change vs veh, CNEP1R1 / RFU, BIVM-ERCC5 /// ERCC5 / Fold change vs veh, BIVM-ERCC5 /// ERCC5 / RFU, ILF3 / Fold change vs veh, ILF3 / RFU 11762660_at / Fold change /veh 11762660_at / RFU VCAN (11757783_s_at) / Fold change /veh VCAN (11757783_s_at) / RFU DDX43 (11728927_at) / Fold change /veh DDX43 (11728927_at) / RFU KRT8 (11758188_x_at) / Fold change /veh KRT8 (11758188_x_at) / RFU NKD1 (11759106_at) / Fold change /veh NKD1 (11759106_at) / RFU SRD5A1 (11742802_a_at) / Fold change /veh SRD5A1 (11742802_a_at) / RFU TPSAB1 /// TPSB2 (11721975_s_at) / Fold change /veh TPSAB1 /// TPSB2 (11721975_s_at) / RFU GSTM3 (11746129_a_at) / Fold change /veh GSTM3 (11746129_a_at) / RFU IL23R (11737362_x_at) / Fold change /veh IL23R (11737362_x_at) / RFU TMEM51 (11727254_a_at) / Fold change /veh TMEM51 (11727254_a_at) / RFU PIWIL2 (11732686_x_at) / Fold change /veh PIWIL2 (11732686_x_at) / RFU ORM1 (11744905_x_at) / Fold change /veh ORM1 (11744905_x_at) / RFU CCDC152 (11743942_at) / Fold change /veh CCDC152 (11743942_at) / RFU ECM1 (11717891_a_at) / Fold change /veh ECM1 (11717891_a_at) / RFU IL23R (11748794_a_at) / Fold change /veh IL23R (11748794_a_at) / RFU TNFAIP8L3 (11732012_x_at) / Fold change /veh TNFAIP8L3 (11732012_x_at) / RFU MBOAT4 (11741988_at) / Fold change /veh MBOAT4 (11741988_at) / RFU 11764193_at / Fold change /veh 11764193_at / RFU TMEM53 (11763286_at) / Fold change /veh TMEM53 (11763286_at) / RFU MAGEB2 (11727129_at) / Fold change /veh MAGEB2 (11727129_at) / RFU TMEM200A (11744735_a_at) / Fold change /veh TMEM200A (11744735_a_at) / RFU CCDC152 (11751479_a_at) / Fold change /veh CCDC152 (11751479_a_at) / RFU FAM211A (11726209_a_at) / Fold change /veh FAM211A (11726209_a_at) / RFU RGS16 (11746705_a_at) / Fold change /veh RGS16 (11746705_a_at) / RFU VCAN (11755009_s_at) / Fold change /veh VCAN (11755009_s_at) / RFU RHOB (11743442_s_at) / Fold change /veh RHOB (11743442_s_at) / RFU RGS16 (11720943_a_at) / Fold change /veh RGS16 (11720943_a_at) / RFU RGS16 (11720944_at) / Fold change /veh RGS16 (11720944_at) / RFU, VPS4B / Fold change vs veh, VPS4B / RFU, CREB1 / Fold change vs veh, CREB1 / RFU, DNAJC13 / Fold change vs veh, DNAJC13 / RFU, GNAQ / Fold change vs veh, GNAQ / RFU, CDK5R1 / Fold change vs veh, CDK5R1 / RFU, ZRANB3 / Fold change vs veh, ZRANB3 / RFU, CUL4A / Fold change vs veh, CUL4A / RFU, CCNY / Fold change vs veh, CCNY / RFU, UFL1 / Fold change vs veh, UFL1 / RFU, COG3 / Fold change vs veh, COG3 / RFU, DIAPH2 / Fold change vs veh, DIAPH2 / RFU, SKA2 / Fold change vs veh, SKA2 / RFU, AFF3 / Fold change vs veh, AFF3 / RFU, LMF1 / Fold change vs veh, LMF1 / RFU, IPO11 / Fold change vs veh, IPO11 / RFU, DFFB / Fold change vs veh, DFFB / RFU, FOXP1 / Fold change vs veh, FOXP1 / RFU, CARD8 / Fold change vs veh, CARD8 / RFU, STRN3 / Fold change vs veh, STRN3 / RFU, ADK / Fold change vs veh, ADK / RFU, RASSF2 / Fold change vs veh, RASSF2 / RFU, WIPF1 / Fold change vs veh, WIPF1 / RFU, LARP1B / Fold change vs veh, LARP1B / RFU, RASA1 / Fold change vs veh, RASA1 / RFU, RB1 / Fold change vs veh, RB1 / RFU, PPFIA1 / Fold change vs veh, PPFIA1 / RFU, MAT2A / Fold change vs veh, MAT2A / RFU, CCT5 / Fold change vs veh, CCT5 / RFU, WDR92 / Fold change vs veh, WDR92 / RFU, CUX1 / Fold change vs veh, CUX1 / RFU, TTC7A / Fold change vs veh, TTC7A / RFU, TMEM135 / Fold change vs veh, TMEM135 / RFU, DEPTOR / Fold change vs veh, DEPTOR / RFU, CPM / Fold change vs veh, CPM / RFU, DNAJB6 / Fold change vs veh, DNAJB6 / RFU, CACNA2D3 / Fold change vs veh, CACNA2D3 / RFU, DTX4 / Fold change vs veh, DTX4 / RFU, TFCP2 / Fold change vs veh, TFCP2 / RFU, GMCL1 /// GMCL1P1 / Fold change vs veh, GMCL1 /// GMCL1P1 / RFU, AEBP2 / Fold change vs veh, AEBP2 / RFU, SNHG1 /// SNORD22 /// SNORD25 /// SNORD26 /// SNORD27 /// SNORD28 /// SNORD29 /// SNORD31 / Fold change vs veh, SNHG1 /// SNORD22 /// SNORD25 /// SNORD26 /// SNORD27 /// SNORD28 /// SNORD29 /// SNORD31 / Fold change (Aza/veh), C12orf56 (ProbeSet 11735607_a_at) / Fold change (ACY-1035/veh), C12orf56 (ProbeSet 11735607_a_at) / Fold change (Aza/veh), FGFR1OP (ProbeSet 11751329_s_at) / Fold change (ACY-1035/veh), FGFR1OP (ProbeSet 11751329_s_at) / Fold change (Aza/veh), VPS36 (ProbeSet 11739960_a_at) / Fold change (ACY-1035/veh), VPS36 (ProbeSet 11739960_a_at) / RFU SYPL1 (11715823_x_at) / Fold change /veh SYPL1 (11715823_x_at) / RFU IGFBP7 (11715501_s_at) / Fold change /veh IGFBP7 (11715501_s_at) / RFU REEP3 (11722064_at) / Fold change /veh REEP3 (11722064_at) / RFU IGLL1 (11728026_x_at) / Fold change /veh IGLL1 (11728026_x_at): dose or concentration left out as unconfirmed
Conditions: ProbeSet 11717876_a_at; LIST D

Nc1ccc(-c2cccs2)cc1NC(=O)c1ccc2c(c1)cc(C1CC1)n2CCN1CCOCC1 [ACY-1035]
RFU, PPFIA1: 30.94 RFU
